Assay results taken from patent US20070015813A1, “Treatment of protein folding disorders” (QUEEN'S UNIVERSITY AT KINGSTON, priority 2005, published 2007).

Legend:
Aβ1-40 [1] = target: T1, Aβ1-40 (Homo sapiens, UniProt P05067); experiment: “Seeded” Thioflavin T aggregation assay for Aβ1-40; type: biochemical; settings: HFIP pretreatment omitted
T1 construct: Aβ^1-40 (AnaSpec, San Jose, Calif., lots 14212, 34862 and 34889); purchased AnaSpec, San Jose, Calif
Description: The same procedure as described in Thioflavin T Aggregation Assay was used for “seeded” ThT aggregarion assay for Aβ^1-40 but the HFIP pretreatment was omitted. The presence of small Aβ^1-40 aggregates in the untreated batches caused aggregation to begin immediately rather than after a 12-24 hr. lag period.

Aβ1-40 [2] = target: T1, Aβ1-40; experiment: Circular dichroism studies of Aβ1-40; type: biochemical; settings: 40 μM Aβ1-40, 200 μM compound, pH 7.4, 37° C.
Procedure: Aliquots (220 μL) of pretreated Aβ^1-40 (40 μM in 20 mM Tris-HCl, pH 7.4) were added directly to 1 mm quartz circular dichroism (CD) cells, followed by 2.2 μL compound (of varying concentration) in methanol or methanol alone (controls). Solutions were incubated at 37° C. for up to 6 days. CD scans were performed on a J-810 spectropolarimeter (obtained from Jasco Corporation, Tokyo, Japan) between 190 and 250 nm, with a resolution of 0.1 nm and bandwidth of 1 nm. Ten scans were obtained for each reading. Spectra had background CD of the buffer subtracted and were left unsmoothed. Readings were performed at 37° C.
FIG. 6 depicts circular dichroism (CD) of Aβ^1-40 alone (A) and in the presence of 0j (B) and morin (C). Conditions: 40 μM Aβ^1-40, 200 μM compound (B,C), pH 7.4, Tris-HCl (20 mM), 1% MeOH. Prior to experiment, Aβ^1-40 pretreated with 1,1,1,3,3,3-hexafluoroisopropanol (HFIP).

Aβ1-40 [3] = target: T1, Aβ1-40; experiment: 1H NMR binding of bi-aromatics to Aβ1-40; settings: 100 μM Aβ1-40, 50 μM compound, D2O, 27° C.
Procedure: Aβ^1-40 was dissolved in HFIP (1 mL) and sonicated (20 min) to disassemble any pre-formed aggregates. The HFIP was removed with a stream of Ar(g) and the waxy residue dissolved in 2.2 mL buffer (Tris-d11, 20 mM in D2O). Incubations (0.500 mL) were made directly in thin-walled NMR tubes, to which were added compound (2.5 μL, 10 mM in DMSO-d6) or vehicle. An identical incubation lacking Aβ^1-40 was used as compound reference. Spectra were obtained for Aβ^1-40 alone (100 μM), compound alone (50 μM) and for a mixture of both (100 μM Aβ^1-40, 50 μM compound). Spectra were recorded at 500 MHz and 27° C. (300K), with 674 scans obtained for each.
FIG. 9 depicts ^1H NMR spectra identifying binding of 5-bromo-5′-carboxy-3,3′-bis-indolyl (0c) to Aβ^1-40. Spectra were obtained for Aβ^1-40 alone (100 μM, A), compound alone (50 μM, C) and for a mixture of both (100 μM Aβ^1-40, 50 μM compound, B). Spectra were recorded at 500 MHz and 27° C. (300K) in D2O containing 1% DMSO-d6, and 674 scans were obtained for each.

T1 sequence (P05067 672-711 limits assumed): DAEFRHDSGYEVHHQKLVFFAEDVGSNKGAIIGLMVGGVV

O=C(O)c1ccc2[nH]cc(-c3c[nH]c4ccc(Br)cc34)c2c1 [0c, 3-(5-bromo-indol-3-yl)-indole-5-carboxylic Acid]
inhibition of Aβ1-40 aggregation in “seeded” ThT assay (Aβ1-40 [1]): inhibition
random coil (RC)→β-sheet transition of Aβ1-40 by circular dichroism (Aβ1-40 [2]): this transition was inhibited
binding to Aβ1-40 by 1H NMR (signal broadening) (Aβ1-40 [3]): binding
